In patent US6951647B2, “T cell binding ligand peptides and method of inducing a cellular immune response” (Cel-Sci Corporation, priority 2001, dated 2005):
Values joined by “and” are separate entries in the source; they are usually repeats but may differ in a detail not shown here. Identical values can stand only once. Marks after values point to notes of the source that are not given here.

Experiments:
C Clade = assay: ELISA cross clade recognition by sera of immunized mice, C Clade; assay type: in vivo; conditions: day 63 test bleeding, sera 1:200, individual mouse
Protocol: (§1) Mice in groups (5-10 animals per group as designated) are immunized with the LEAPS constructs (25 μg/dose) of SEQ ID NO's:37, 38 and 39, in 0.2 mL emulsified 1:1 with adjuvant (Seppic's ISA-51 or Corixa's microfluidized MPL S/E) on days 0 and 14. Mice are evaluated by Delayed Type of Hypersensitivity (DTH) by inoculation on day 26 with 20 μl of a solution of saline or mH (SEQ ID NO:6) (25 μg in saline) in the left or right ear respectively. The DTH response is determined by measurement of the ear thickness 48 hours later and expressed as increase in ear thickness (mm) of experimental ear compared to that of the control ear. Individual animal sera are collected for measurement of antibody on day 28, 42, 63 and 77. Sera from individual animals and group pools are evaluated for specific anti-mH antibody, for total antibody, IgG1, IgG2a and IgG3 antibody isotype and cross clade titer at selected time points as indicated.
(§2) The mouse sera for the ELISA was used at a dilution of 1:200. Again, clearly, the construct provides higher signals indicative of higher levels of the antibodies that recognized other clades besides the parental one (Clade B) of mH.
(§3) A cross clade analysis for pools of day 42 test bleedings from the same groups as used in Table 3, were obtained and the results are shown in Table 4.

modified HGP-30 [1] = assay: ELISA antibody screening of sera of immunized mice on modified HGP-30; assay type: in vivo; conditions: day 63 test bleeding, sera 1:200, individual mouse
Protocol: as §1, with “indicated. […]” for “indicated.”

modified HGP-30 [2] = assay: Delayed Type Hypersensitivity (DTH) ear thickness response with antisera depletion of CD4 or CD8 cells; assay type: in vivo, Mice
Protocol: as §1
Select immunoglobulin preparations were obtained from Dr. Stephen Hoffmann, Malaria Program, U.S. Navy. […] This allows one to determine some parts of the nature of various cellular (e.g., T-cell) involvement in the early stage of immune system response with the LEAPS peptide-constructs. It is recognized, however, that this is only a temporary event since new cells are continuously being developed from stem cells and the animals become resistant to the reagents.
The animals are pretreated with the antisera as indicated for 5 days before the initial immunization with peptide-construct having SEQ ID NO:37 or SEQ ID NO:39 on […]. No pretreatment is done before the booster immunization on day 14 or DTH on day 26-28. The mice are then inoculated with the test antigen or saline (control) on day 26 in the left and right ears, respectively, and the DTH response is measured on day 28. The difference between the values for the test and saline control ears is calculated for each group of five animals along with the standard error of the mean (sem) and the results are plotted (see FIG. 1). Also shown in FIG. 1 are values for the untreated animals and animals immunized on day 14 only.
The DTH (Delayed Type Hypersensitivity) data is statistically significant with a t-test of 0.05 for SEQ ID NO:39 and anti-CD8. The DTH for pretreatment of SEQ ID NO:37 immunized mice with anti-CD4 was just above the cutoff limit for statistical significance due to a weaker DTH response and small group size.

B Clade = assay: ELISA cross clade recognition by sera of immunized mice, B Clade; assay type: in vivo; conditions: day 63 test bleeding, sera 1:200, individual mouse
Protocol: as §1, §2, §3

[3] = tested on: modified HGP-30 (mH, SEQ ID NO:6); assay: Isotype analysis (ELISA) of anti-mH antibody in sera of immunized mice; assay type: in vivo; parameters: IgG1 / IgG2a / IgG2b / IgG3: unit not given here; conditions: ELISA signal, day 42 test bleeding
Protocol: as §1
The results of an isotype analysis of day 42 test bleedings with G′-mH (SEQ ID NO:37), G-mH (SEQ ID NO:38), J-mH (SEQ ID NO:39), F-mH (SEQ ID NO:40) and F-HGP-30 (SEQ ID NO:41), are shown in Table 1.
An isotype analysis for pools of day 28 test bleedings G-mH, G′-mH and m-HGP-30/KLH using either MPL S/E or ISA51 as adjuvant, are shown in Table 3.

E Clade = assay: ELISA cross clade recognition by sera of immunized mice, E Clade; assay type: in vivo; conditions: day 63 test bleeding, sera 1:200, individual mouse
Protocol: as §1, §2, §3

D Clade = assay: ELISA cross clade recognition by sera of immunized mice, D Clade; assay type: in vivo; conditions: day 63 test bleeding, sera 1:200, individual mouse
Protocol: as §1, §2, §3

[4] = Day 14 Injection Only (immunized with construct on day 14 only), average of group of 5 mice
[5] = Treatment Anti CD4, daily for 5 days before immunization, average of group (5 mice)
[6] = Treatment Anti CD8, daily for 5 days before immunization, average of group of 5 mice
[7] = Treatment None, average of group (5 mice), ISA 51 adjuvant
[8] = Treatment Normal rat IgG, daily for 5 days before immunization, average of group (5 mice)

DLL KNG ERI EKV EGG GAT LYS VHQ RID VKD TKE ALE KIE EEQ NKS (DGQEEKAGVVSTGLIGGGQYSWFVNGTF) [SEQ ID NO: 59, Peptide J linked by GGG spacer to modified HGP-30 (mH)]
ELISA signal on C Clade (C Clade): 2.421 and 1.699 and 1.295 and 0.969 and 0.665 and 0.780 and 0.171 and 1.370 and 2.322 | ELISA signal on modified HGP-30 (modified HGP-30 [1]): 0.440 and 0.011 and 0.753 and 0.905 and 0.793 and 0.100 and 0.035 and 0.000 (2×) | Left Ear thickness, inoculated day 26 with HGP-30, measured after 48 hours (modified HGP-30 [2]; [4]): 0.254 mm | Right Ear thickness, inoculated day 26 with saline, measured after 48 hours (modified HGP-30 [2]; [4]): 0.231 mm | DTH % increase (L-R)/R (modified HGP-30 [2]; Day 14 Injection Only, average of group of 5 mice): 10.00% | Left Ear thickness, inoculated day 26 with HGP-30, measured after 48 hours (modified HGP-30 [2]; [5]): 0.288 mm | Right Ear thickness, inoculated day 26 with saline, measured after 48 hours (modified HGP-30 [2]; [5]): 0.240 mm | DTH % increase (L-R)/R (modified HGP-30 [2]; Treatment Anti CD4, average of group (5 mice)): 20.00% | Left Ear thickness, inoculated day 26 with HGP-30, measured after 48 hours (modified HGP-30 [2]; [6]): 0.233 mm | Right Ear thickness, inoculated day 26 with saline, measured after 48 hours (modified HGP-30 [2]; [6]): 0.220 mm | DTH % increase (L-R)/R (modified HGP-30 [2]; Treatment Anti CD8, average of group of 5 mice): 6.20%*** | DTH % increase (L-R)/R (modified HGP-30 [2]; Treatment None, average of group (5 mice)): 29.30% | Left Ear thickness, inoculated day 26 with HGP-30, measured after 48 hours (modified HGP-30 [2]; [7]): 0.288 mm | Right Ear thickness, inoculated day 26 with saline, measured after 48 hours (modified HGP-30 [2]; [7]): 0.222 mm | Left Ear thickness, inoculated day 26 with HGP-30, measured after 48 hours (modified HGP-30 [2]; [8]): 0.296 mm | Right Ear thickness, inoculated day 26 with saline, measured after 48 hours (modified HGP-30 [2]; [8]): 0.227 mm | DTH % increase (L-R)/R (modified HGP-30 [2]; Treatment Normal rat IgG, average of group (5 mice)): 30.60% | Type of cells required for a DTH response (modified HGP-30 [2]; cell specific antisera as depletion reagent for the primary immunization (FIG. 1)): requires the presence and presumably activation of CD8+ but not CD4+ cells | ELISA signal on B Clade (B Clade): 0.262 and 0.000 (6×) and 0.575 and 0.026 | IgG1 ([3]; group Average): 0.717 | IgG2a ([3]; group Average): 0.046 | IgG2b ([3]; group Average): 0.019 | IgG3 ([3]; group Average): 0.070 | IgG1 ([3]; individual mouse): 0.002 and 1.603 and 0.014 and 2.023 and 2.199 and 0.053 and 0.057 and 0.505 and 0.000 | IgG2a ([3]; individual mouse): 0.002 (2×) and 0.027 and 0.000 (2×) and 0.299 and 0.060 and 0.014 and 0.011 | IgG2b ([3]; individual mouse): 0.002 and 0.014 and 0.000 (5×) and 0.113 and 0.039 | IgG3 ([3]; individual mouse): 0.017 and 0.032 and 0.009 and 0.227 and 0.324 and 0.000 (2×) and 0.003 and 0.016 | ELISA signal on E Clade (E Clade): 2.431 and 1.565 and 0.789 and 0.788 and 0.554 and 0.722 and 0.142 and 1.379 and 2.379 | ELISA signal on D Clade (D Clade): 0.120 and 0.004 and 0.196 and 0.000 (6×)
